Results: ChEMBL document CHEMBL4376867 (J Med Chem, 2020)
pIC50: −log10 of the molar value.

Experiments:
[1] = target: T1, Receptor-type tyrosine-protein kinase FLT3 (Homo sapiens, UniProt P36888); assay: Inhibition of recombinant human N-terminal GST-tagged FLT3 (564 to end residues) expressed in sf21 cells using biotin labelled Ahx-GGEEEEYFELVKKKK peptide as substrate preincubated with enzyme for 15 mins followed by substrate addition and further incubated for 45 mins in presence of 10 uM of ATP by TR-FRET assay
T1 sequence (P36888 whole entry): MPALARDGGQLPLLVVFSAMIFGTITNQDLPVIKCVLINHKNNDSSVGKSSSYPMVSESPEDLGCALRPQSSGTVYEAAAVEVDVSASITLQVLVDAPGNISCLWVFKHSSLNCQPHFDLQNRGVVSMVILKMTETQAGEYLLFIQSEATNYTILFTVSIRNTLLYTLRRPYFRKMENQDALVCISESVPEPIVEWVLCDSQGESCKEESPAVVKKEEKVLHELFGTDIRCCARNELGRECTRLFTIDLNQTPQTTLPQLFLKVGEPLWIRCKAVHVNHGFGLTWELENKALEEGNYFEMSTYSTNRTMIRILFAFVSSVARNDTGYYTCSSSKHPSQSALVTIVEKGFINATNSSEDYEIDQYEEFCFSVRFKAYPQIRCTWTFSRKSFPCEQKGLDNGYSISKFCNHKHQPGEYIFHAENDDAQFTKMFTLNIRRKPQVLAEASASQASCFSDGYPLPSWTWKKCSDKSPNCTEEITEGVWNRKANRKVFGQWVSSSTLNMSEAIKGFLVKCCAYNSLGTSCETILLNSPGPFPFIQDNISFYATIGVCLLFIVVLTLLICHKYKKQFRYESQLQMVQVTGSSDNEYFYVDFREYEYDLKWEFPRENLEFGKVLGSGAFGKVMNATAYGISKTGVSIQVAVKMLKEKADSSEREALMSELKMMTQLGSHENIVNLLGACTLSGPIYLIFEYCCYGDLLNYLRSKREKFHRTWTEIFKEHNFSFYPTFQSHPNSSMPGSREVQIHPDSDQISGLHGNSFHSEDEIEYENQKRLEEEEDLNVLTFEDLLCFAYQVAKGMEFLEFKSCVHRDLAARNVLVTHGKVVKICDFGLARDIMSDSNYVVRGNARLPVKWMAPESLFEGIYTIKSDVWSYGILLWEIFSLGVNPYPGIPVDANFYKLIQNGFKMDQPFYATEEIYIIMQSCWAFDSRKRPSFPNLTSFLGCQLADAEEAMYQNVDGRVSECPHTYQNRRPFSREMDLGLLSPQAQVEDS

[2] = Efflux ratio of apparent permeability across basolateral to apical membrane over apical to basolateral membrane in human Caco2 cells; type: ADME, cell-based; conditions: Caco-2
[3] = target: Cytochrome P450 2D6 (Homo sapiens, UniProt P10635); assay: Inhibition of CYP2D6 (unknown origin); type: ADME
Chain of Cytochrome P450 2D6 (P10635 whole entry): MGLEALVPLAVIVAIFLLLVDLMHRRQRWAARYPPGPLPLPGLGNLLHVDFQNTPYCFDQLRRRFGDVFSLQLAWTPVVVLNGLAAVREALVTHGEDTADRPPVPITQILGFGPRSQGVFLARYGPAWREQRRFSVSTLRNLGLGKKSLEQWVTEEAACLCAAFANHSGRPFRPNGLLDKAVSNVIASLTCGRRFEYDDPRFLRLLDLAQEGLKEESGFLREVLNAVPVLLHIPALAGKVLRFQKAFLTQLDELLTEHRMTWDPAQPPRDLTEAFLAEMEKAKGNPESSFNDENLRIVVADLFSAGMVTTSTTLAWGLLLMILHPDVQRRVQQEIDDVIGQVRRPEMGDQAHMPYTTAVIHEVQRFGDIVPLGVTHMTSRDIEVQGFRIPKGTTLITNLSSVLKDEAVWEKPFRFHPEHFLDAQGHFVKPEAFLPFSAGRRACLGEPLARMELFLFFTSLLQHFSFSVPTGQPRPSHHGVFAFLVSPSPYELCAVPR

[4] = target: Cytochrome P450 2C9 (Homo sapiens, UniProt P11712); assay: Inhibition of CYP2C9 (unknown origin); type: ADME
Chain of Cytochrome P450 2C9 (P11712 whole entry): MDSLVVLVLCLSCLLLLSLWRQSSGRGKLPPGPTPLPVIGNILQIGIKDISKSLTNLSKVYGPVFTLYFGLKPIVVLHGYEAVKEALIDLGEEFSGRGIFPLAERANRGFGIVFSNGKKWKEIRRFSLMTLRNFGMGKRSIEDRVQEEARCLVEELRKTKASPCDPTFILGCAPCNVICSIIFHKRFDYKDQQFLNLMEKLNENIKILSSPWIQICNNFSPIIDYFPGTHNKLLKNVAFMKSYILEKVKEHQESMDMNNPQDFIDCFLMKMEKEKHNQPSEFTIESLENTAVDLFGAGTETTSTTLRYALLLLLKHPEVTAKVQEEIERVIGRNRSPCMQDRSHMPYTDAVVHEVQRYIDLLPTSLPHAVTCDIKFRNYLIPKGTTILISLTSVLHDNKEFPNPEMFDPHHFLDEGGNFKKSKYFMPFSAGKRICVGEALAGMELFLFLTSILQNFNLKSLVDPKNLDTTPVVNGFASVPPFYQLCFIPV

[5] = Hepatic extraction in Wistar rat at 0.30 mg/kg, iv via bolus or 0.30 mg/kg, po measured upto 24 hrs by LC-MS/MS analysis; conditions: in vivo, 0.3 mg/kg
[6] = system: Mus musculus; assay: Time required for unbound plasma concentration to reach IC50 for recombinant full length human N-terminal His-tagged TBK1 in NMRI mouse at 100 mg/kg, po; type: ADME, organism-based; conditions: in vivo
[7] = Toxicity in NMRI nude mouse xenografted with human SK-MEL-2 cells harboring NRAS/TP53 mutation assessed as body weight loss at 200 mg/kg, po bid for 35 days relative to control; type: organism-based; conditions: in vivo, 840 h
[8] = Clearance in Wistar rat at 0.30 mg/kg, iv via bolus measured upto 24 hrs by LC-MS/MS analysis; type: ADME, organism-based; conditions: in vivo, 0.3 mg/kg
[9] = Toxicity in NMRI mouse xenografted with human SK-MEL-2 cells assessed as maximum tolerated dose administered orally bid for 35 days; conditions: in vivo, po
[10] = target: T2, Cytochrome P450 2C8 (Homo sapiens, UniProt P10632); assay: Inhibition of CYP2C8 (unknown origin); type: ADME
T2 sequence (P10632 whole entry): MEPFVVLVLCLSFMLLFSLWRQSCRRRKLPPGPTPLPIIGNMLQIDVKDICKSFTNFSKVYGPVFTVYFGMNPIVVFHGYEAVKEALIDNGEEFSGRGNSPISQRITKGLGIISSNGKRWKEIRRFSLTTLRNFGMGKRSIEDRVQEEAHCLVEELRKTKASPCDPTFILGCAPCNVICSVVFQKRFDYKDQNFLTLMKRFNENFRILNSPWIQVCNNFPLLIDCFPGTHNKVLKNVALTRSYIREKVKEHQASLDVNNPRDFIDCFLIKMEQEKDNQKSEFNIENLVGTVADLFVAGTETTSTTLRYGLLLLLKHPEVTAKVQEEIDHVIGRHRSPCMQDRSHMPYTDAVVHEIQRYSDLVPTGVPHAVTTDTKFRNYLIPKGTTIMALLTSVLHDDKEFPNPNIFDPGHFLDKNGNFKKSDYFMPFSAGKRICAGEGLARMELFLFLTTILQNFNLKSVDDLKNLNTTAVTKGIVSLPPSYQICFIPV

[11] = Hepatic extraction ratio in human liver microsomes at 1 uM measured upto 60 mins in presence of NADP by LC-MS/MS analysis
[12] = Clearance in rat liver microsomes at 1 uM measured upto 60 mins by LC-MS/MS analysis; type: ADME, Microsome; conditions: 1 h
[13] = system: Mus musculus; assay: Time required for unbound plasma concentration to reach IC50 for IKKepsilon/TBK1 in human MDB-MB-231 cells transduced with lentiviral vector expressing human IRF3 in NMRI mouse at 100 mg/kg, po; type: ADME, organism-based; conditions: in vivo
[14] = target: T3, Cytochrome P450 1A2 (Homo sapiens, UniProt P05177); assay: Inhibition of CYP1A2 (unknown origin); type: ADME
T3 sequence (P05177 whole entry): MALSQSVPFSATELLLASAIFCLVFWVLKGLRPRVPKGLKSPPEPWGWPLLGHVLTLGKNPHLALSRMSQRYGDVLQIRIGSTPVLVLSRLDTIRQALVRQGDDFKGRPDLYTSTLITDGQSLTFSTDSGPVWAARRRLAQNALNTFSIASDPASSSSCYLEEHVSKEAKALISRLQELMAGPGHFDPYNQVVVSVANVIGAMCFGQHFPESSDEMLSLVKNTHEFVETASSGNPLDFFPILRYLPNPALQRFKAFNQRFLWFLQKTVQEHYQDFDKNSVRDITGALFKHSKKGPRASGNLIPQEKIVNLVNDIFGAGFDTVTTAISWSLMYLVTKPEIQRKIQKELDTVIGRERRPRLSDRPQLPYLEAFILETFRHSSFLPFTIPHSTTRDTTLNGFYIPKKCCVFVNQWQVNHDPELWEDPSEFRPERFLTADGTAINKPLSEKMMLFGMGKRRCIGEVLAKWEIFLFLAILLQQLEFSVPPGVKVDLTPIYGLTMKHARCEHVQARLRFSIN

[15] = Distribution coefficient, log D of compound at pH 7.5; type: physicochemical; conditions: octanol/water
[16] = Clearance in Han Wistar rat hepatocytes at 1 uM measured upto 90 mins by LC-MS/MS analysis; type: ADME, cell-based, Hepatocyte
[17] = target: Cytochrome P450 3A4 (Homo sapiens, UniProt P08684); assay: Inhibition of CYP3A4 (unknown origin) measured under preincubated conditions; type: ADME
Chain of Cytochrome P450 3A4 (P08684 whole entry): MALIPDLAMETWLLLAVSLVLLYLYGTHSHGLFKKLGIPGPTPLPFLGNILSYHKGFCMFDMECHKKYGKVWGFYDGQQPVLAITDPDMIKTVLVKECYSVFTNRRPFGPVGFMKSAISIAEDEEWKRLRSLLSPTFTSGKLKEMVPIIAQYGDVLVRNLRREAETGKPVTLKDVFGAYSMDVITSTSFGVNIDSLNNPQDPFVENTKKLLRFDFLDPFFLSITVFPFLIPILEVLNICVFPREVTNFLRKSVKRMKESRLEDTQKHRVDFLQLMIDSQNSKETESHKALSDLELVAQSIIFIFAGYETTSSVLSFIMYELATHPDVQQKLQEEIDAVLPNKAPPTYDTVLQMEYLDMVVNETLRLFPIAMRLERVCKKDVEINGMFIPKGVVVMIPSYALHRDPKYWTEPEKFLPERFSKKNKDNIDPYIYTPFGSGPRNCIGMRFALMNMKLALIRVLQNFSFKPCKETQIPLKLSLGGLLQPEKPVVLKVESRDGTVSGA

Structure (SMILES)	pIC50 [1]	efflux ratio [2]	other results
C[C@H](c1ccnc(Nc2nc3ccc(-c4cnn(CC5CC5)c4)cc3[nH]2)c1)N1CCN(C(=O)CC(F)(F)F)CC1	7.74	7.5	–
CN(C)c1cc(-c2ccc3nc(Nc4cc(CN5CCN(C(=O)CC(F)(F)F)CC5)ccn4)[nH]c3c2)ncn1	6.94	–	–
C[C@H](c1ccnc(Nc2nc3ccc(-c4cc(OCC5CC5)ncn4)cc3[nH]2)c1)N1CCN(C(=O)CC(F)(F)F)CC1	7.89	–	–
O=C(CC(F)(F)F)N1CCN(Cc2ccnc(Nc3nc4ccc(-c5cnn(CC6CC6)c5)cc4[nH]3)c2)CC1	8.05	3.9	–
Cc1cc(-c2ccc3nc(Nc4cc([C@@H](C)N5CCN(C(=O)CC(F)(F)F)CC5)ccn4)[nH]c3c2)ncn1	8.00	–	–
CC(C)Oc1cncnc1-c1ccc2nc(Nc3cc([C@@H](C)N4CCN(C(=O)CC(F)(F)F)CC4)ccn3)[nH]c2c1	9.00	–	–
Cc1noc(-c2ccc3nc(Nc4cc(CN5CCN(C(=O)CC(F)(F)F)CC5)ccn4)[nH]c3c2)n1	7.43	3.4	–
Cc1noc(-c2ccc3nc(Nc4cc([C@@H](C)N5CCN(C(=O)CC(F)(F)F)CC5)ccn4)[nH]c3c2)n1	7.52	0.8	–
COCc1cc(-c2ccc3nc(Nc4cc([C@@H](C)N5CCN(C(=O)CC(F)(F)F)CC5)ccn4)[nH]c3c2)ncn1	8.30	–	–
CNc1cc(-c2ccc3nc(Nc4cc(CN5CCN(C(=O)CC(F)(F)F)CC5)ccn4)[nH]c3c2)ncn1	8.22	–	–
C[C@H](c1ccnc(Nc2nc3ccc(-c4cc(N(C)C)ncn4)cc3[nH]2)c1)N1CCN(C(=O)CC(F)(F)F)CC1 [BAY-985]	6.91	17	pIC50 [3]: < 4.70; pIC50 [4]: 4.77; hepatic extraction ratio at 24 h [5]: 0.95; Time [6]: 10 h; Activity [7]: < 10%; clearance [8]: 66.7 mL/min/kg; MTD at 840 h [9]: 200 mg/kg; pIC50 [10]: 6.07; hepatic extraction ratio at 1 h, 1 µM [11]: 0.38; CLH [12]: 28.3 mL/min/kg; Time [13]: 11 h; pIC50 [14]: < 4.70; logD [15]: 2.5; CLH [16]: 28.3 mL/min/kg; pIC50 [17]: < 4.70
